PubChem BioAssay (NCI)
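Each compound was tested at five concentrations against cells in 96-well plates for 48 hours. TGI: total growth inhibition.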

Assays:
Assay in all cases: inhibition of tumour cell growth, NCI panel, 48 h
MALME-3M melanoma = system: MALME-3M melanoma
EKVX NSCLC = system: EKVX NSCLC
SR leukemia = system: SR leukemia
SF-295 CNS = system: SF-295 CNS
M14 melanoma = system: M14 melanoma
U251 CNS = system: U251 CNS
HCT-15 colon = system: HCT-15 colon
NCI/ADR-RES ovarian = system: NCI/ADR-RES ovarian
DU-145 prostate = system: DU-145 prostate
OVCAR-8 ovarian = system: OVCAR-8 ovarian
SW-620 colon = system: SW-620 colon
SNB-75 CNS = system: SNB-75 CNS
HOP-62 NSCLC = system: HOP-62 NSCLC

Row | SMILES | TGI (MALME-3M melanoma) [µM] | TGI (EKVX NSCLC) [µM] | TGI (SR leukemia) [µM] | TGI (SF-295 CNS) [µM] | TGI (M14 melanoma) [µM] | TGI (U251 CNS) [µM] | TGI (HCT-15 colon) [µM] | TGI (NCI/ADR-RES ovarian) [µM] | TGI (DU-145 prostate) [µM] | TGI (OVCAR-8 ovarian) [µM] | TGI (SW-620 colon) [µM] | TGI (SNB-75 CNS) [µM] | TGI (HOP-62 NSCLC) [µM]
1 | Nc1nc(Cl)cc(Nc2ccc3c(c2)CCC3)n1 | > 100 | > 100 | 63.3 | > 100 | > 100 | > 100 | > 100 | > 100 | > 100 | > 100 | > 100 |  | 
2 | Nc1nc(Cl)c2ncn(Cc3ccccc3CCl)c2n1 | 10.2 | 31.1 | > 100 | 23.4 | 40.1 | 13.4 | 7.45 | 34.6 | 32.3 | 19.6 | 11.8 | 23.8 | 62.3
3 | CCOC(=O)c1sc2nc(SC)nc(Nc3ccc(OC)c(OC)c3)c2c1N | > 100 | > 100 | > 100 | 45.6 | > 100 | > 100 | > 100 | > 100 | > 100 | > 100 | > 100 |  | 26
4 | Cc1c(-c2ccccc2)n(C)c2cn[nH]c(=O)c12 | > 100 | > 100 | 70.9 | 65.1 | > 100 | > 100 | > 100 | 69.4 | > 100 | > 100 | > 100 |  | 80.3
5 | C=CCCCC1(C)CCCCNC1=O (stereo not given) | > 10 | > 10 | > 10 | > 10 | > 10 | > 10 | > 10 | > 10 | > 10 | > 10 | > 10 | > 10 | > 10
6 | CCNC1CC(C(C)(C)NCC)CC=C1C (stereo not given) |  | > 100 | > 100 | > 100 | > 100 | > 100 | > 100 | > 100 | > 100 | > 100 | > 100 | > 100 | > 100
7 | CC(C)(C)SC1=CCC[C@@H](P(=O)(c2ccccc2)c2ccccc2)[C@@H]2CCC[C@@H]12 | 36.3 | 33.7 | 43.6 | 29 | 29.5 | 33.3 | 33 | 35.1 | 39.8 | 39.2 | 85.3 | 26.5 | 31.8
8 | COc1cc(OC)c(/C=N/N=C(\N)NO)c(OC)c1 | > 100 | > 100 | > 100 | > 100 | > 100 | > 100 | > 100 | > 100 | > 100 | > 100 | > 100 | 64.7 | > 100
9 | CCOC(=O)Cn1nc2ccc(Nc3nc4ccccc4nc3C(=O)OCC)cc2n1 | > 100 | > 100 | > 100 | > 100 | > 100 | > 100 | > 100 | > 100 | > 100 | > 100 | > 100 | 37.1 | > 100
10 | COc1cc(Cn2c3c(c4cc(O)ccc42)C(=O)c2ccccc2C3=O)cc(OC)c1 | 43.8 | 48.2 | 25.2 | 23.6 | 67.5 | 18.6 | > 100 | 28.8 | 60.6 | 19.1 | > 100 |  | 8.78
11 | O=S(=O)(Nc1ccccc1S(=O)(=O)c1ccccc1)c1ccccc1 | > 100 | 97 | > 100 | > 100 | > 100 | > 100 | > 100 | > 100 | > 100 | > 100 | > 100 | > 100 | > 100
12 | O=C(O)/C(=C\c1ccccc1)Cc1ccccc1 | > 100 | > 100 |  | > 100 | > 100 | > 100 | > 100 | > 100 | > 100 | > 100 | > 100 | > 100 | > 100
13 | COc1cccc(/C=N/n2c(-c3ccccc3)n[nH]c2=O)c1 | > 100 | > 100 |  | 54.4 | > 100 | > 100 | > 100 | > 100 | > 100 | 96.9 | > 100 | 93.2 | 63.5
14 | Cn1cc(-c2ccc(CCOC3CCCCO3)cc2)c2c(C#N)cccc21 (stereo not given) | > 100 | > 100 | > 100 | > 100 | > 100 | > 100 | > 100 | > 100 | > 100 | > 100 | > 100 |  | > 100
15 | COc1cc2c(cc1OC)-c1cc3ccccc3c(=O)n1CCC2 | 98.1 | > 100 |  | > 85 | > 59.1 | > 65.7 | 27.5 | 32.2 | > 66 | 61.2 | > 87.9 | > 90.3 | > 75.3
16 | CC(O[Si](C)(C)C(C)(C)C)[C@H](NC(=O)OCC(Cl)(Cl)Cl)C(=O)O (stereo not given in full) | > 100 | > 100 | > 100 | > 100 |  | > 100 | > 100 | > 100 | > 100 | > 100 | > 100 |  | > 100
17 | CCCCc1ccc(Nc2nc(Cl)c3[nH]cnc3n2)cc1 | 42.2 | > 100 | > 100 | 34.6 | 41.5 |  | 34.4 | 47.7 | 61.8 | 37.3 | 37.4 | 85.4 | 27.8
18 | COC(=O)[C@]1(c2cc3ccccc3[nH]2)CC2CN(CC(=O)N(C)OC)C1C1OC(C)(C)OC21 (stereo not given in full) | > 100 | > 100 |  | > 100 | > 100 | > 100 | > 100 | > 100 | > 100 | > 100 | > 100 | > 100 | > 100
